What was measured:
FLT3 = molecular target: T1, FLT3 (Homo sapiens, UniProt P36888); test: TR-FRET kinase activity assay, FLT3; format: biochemical; conditions: ATP at Km, 60 minutes
T1 sequence (P36888 27-993): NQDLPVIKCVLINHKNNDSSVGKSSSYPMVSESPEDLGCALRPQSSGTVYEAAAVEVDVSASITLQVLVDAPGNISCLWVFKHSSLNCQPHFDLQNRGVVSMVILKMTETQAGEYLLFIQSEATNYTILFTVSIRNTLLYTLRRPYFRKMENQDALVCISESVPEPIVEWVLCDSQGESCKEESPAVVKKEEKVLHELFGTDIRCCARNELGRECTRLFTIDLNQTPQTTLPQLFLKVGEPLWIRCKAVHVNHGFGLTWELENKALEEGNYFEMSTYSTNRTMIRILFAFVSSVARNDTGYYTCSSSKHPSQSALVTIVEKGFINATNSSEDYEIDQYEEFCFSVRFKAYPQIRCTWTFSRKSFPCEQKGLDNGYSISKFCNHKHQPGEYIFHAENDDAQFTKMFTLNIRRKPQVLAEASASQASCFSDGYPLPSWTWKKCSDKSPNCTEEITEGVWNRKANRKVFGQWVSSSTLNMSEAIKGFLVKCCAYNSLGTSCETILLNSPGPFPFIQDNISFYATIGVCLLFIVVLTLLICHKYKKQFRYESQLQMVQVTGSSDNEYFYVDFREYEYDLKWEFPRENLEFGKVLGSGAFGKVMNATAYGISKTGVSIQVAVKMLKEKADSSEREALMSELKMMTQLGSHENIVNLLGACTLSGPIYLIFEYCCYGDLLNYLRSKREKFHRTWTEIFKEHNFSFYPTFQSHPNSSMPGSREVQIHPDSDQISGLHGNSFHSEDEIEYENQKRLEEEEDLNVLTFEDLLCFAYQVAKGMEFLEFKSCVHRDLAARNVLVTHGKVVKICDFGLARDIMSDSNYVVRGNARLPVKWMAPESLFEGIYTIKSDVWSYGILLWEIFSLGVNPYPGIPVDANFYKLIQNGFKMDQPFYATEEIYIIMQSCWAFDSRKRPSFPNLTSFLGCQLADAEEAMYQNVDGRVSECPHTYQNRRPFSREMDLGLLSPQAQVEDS
How it was run: (§1)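 Inhibition is measured as loss of phospho-peptide formation: kinase, fluorescent tyrosine peptide and compound are combined, ATP is added at Km, and the reaction proceeds 60 min at RT in pH 7.5 HEPES buffer. An EDTA stop and Eu-labelled phospho-specific antibody allow TR-FRET detection for IC50 fitting.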

MERTK = molecular target: T2, MERTK (Homo sapiens, UniProt Q12866); test: TR-FRET kinase activity assay, MERTK; format: biochemical; conditions: for IC50: TR-FRET activity assay, ATP at Km, 60 minutes, read-out: Mer IC50
T2 sequence (Q12866 21-999): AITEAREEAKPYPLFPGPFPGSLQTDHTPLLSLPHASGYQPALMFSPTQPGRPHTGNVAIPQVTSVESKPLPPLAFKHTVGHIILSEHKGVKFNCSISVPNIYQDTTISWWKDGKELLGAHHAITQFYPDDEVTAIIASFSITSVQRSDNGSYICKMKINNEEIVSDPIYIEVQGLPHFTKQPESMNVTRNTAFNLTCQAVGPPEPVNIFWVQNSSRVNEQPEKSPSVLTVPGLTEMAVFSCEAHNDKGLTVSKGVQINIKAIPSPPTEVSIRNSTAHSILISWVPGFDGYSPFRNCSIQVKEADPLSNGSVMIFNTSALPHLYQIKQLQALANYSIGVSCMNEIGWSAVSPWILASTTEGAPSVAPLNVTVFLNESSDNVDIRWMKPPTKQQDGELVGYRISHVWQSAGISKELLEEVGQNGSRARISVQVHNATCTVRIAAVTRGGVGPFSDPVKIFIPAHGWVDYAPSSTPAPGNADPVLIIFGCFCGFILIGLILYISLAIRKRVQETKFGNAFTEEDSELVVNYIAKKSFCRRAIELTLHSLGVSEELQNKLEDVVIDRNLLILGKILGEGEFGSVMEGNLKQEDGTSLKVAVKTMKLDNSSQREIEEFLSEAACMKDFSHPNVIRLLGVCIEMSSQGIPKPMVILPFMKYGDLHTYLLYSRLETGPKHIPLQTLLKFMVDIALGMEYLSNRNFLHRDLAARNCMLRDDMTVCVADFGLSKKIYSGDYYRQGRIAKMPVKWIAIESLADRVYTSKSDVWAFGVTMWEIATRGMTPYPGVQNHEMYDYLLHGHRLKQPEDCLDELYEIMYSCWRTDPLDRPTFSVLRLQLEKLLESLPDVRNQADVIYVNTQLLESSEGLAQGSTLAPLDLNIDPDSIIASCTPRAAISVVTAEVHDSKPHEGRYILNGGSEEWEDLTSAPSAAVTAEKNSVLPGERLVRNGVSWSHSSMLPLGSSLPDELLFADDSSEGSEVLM
How it was run: as §1

[1] = ratio calculated as FLT3 IC50/Mer IC50
[2] = ratio of Mer to FLT3: FLT3 IC50/Mer IC50

| SMILES | IC50 (FLT3) [nM] | IC50 (MERTK) [nM] | FLT3/Mer ratio (FLT3 IC50/Mer IC50) (MERTK; [1]) | FLT3/Mer ratio (FLT3 IC50/Mer IC50) (MERTK; [2]) |
| --- | --- | --- | --- | --- |
| COCC(C)Nc1ncc2c(-c3ccc4[nH]ccc4c3)cc(C3CCC(O)CC3)n2n1 (stereo not drawn) [Compound 539] | 1000 to 10000 | ≤ 100 | +++ (“+++” represents a ratio of >100) | – |
| COC[C@H](C)Nc1ncc2c(-c3cnn(C(C)(C)C(=O)N4CC[C@@H](O)C4)c3)cc([C@H]3CC[C@H](O)CC3)n2n1 [Compound 555] | 1000 to 10000 | ≤ 100 | +++ (“+++” represents a ratio of >100) | – |
| COC[C@H](C)Nc1ncc2c(-c3cnn(C(C)(C)C(=O)N4CCOCC4)c3)cc([C@H]3CC[C@](C)(O)CC3)n2n1 [Compound 560] | 100 to 1000 | ≤ 100 | +++ (“+++” represents a ratio of >100) | – |
| COC[C@H](C)Nc1ncc2c(-c3cnn(C(C)(C)C(=O)N4CC[C@H](O)C4)c3)cc([C@H]3CC[C@H](O)CC3)n2n1 [Compound 554] | 1000 to 10000 | ≤ 100 | +++ (“+++” represents a ratio of >100) | – |
| C[C@@H](CC(F)(F)F)Nc1ncc2c(-c3ccc([S@](C)(=N)=O)nc3)cc([C@H]3CC[C@H](O)CC3)n2n1 [Compound 540] | ≤ 100 | ≤ 100 | +++ (“+++” represents a ratio of >100) | – |
| COCC(C)Nc1ncc2c(-c3ccc(C(C)N4CCOCC4)cc3)cc(C3CCC(O)CC3)n2n1 (stereo not drawn) [Compound 143] | ≤ 100 | ≤ 100 | – | ++ (“++” represents a ratio of between 10 and 100) |
| C[C@@H](CC(F)(F)F)Nc1ncc2c(-c3ccc([S@@](C)(=N)=O)nc3)cc([C@H]3CC[C@H](O)CC3)n2n1 [Compound 541] | ≤ 100 | ≤ 100 | ++ (“++” represents a ratio of between 10 and 100) | – |
| CC(Nc1ncc2c(-c3cnn(C4COC4)c3)cc(C3CCC(O)CC3)n2n1)c1ccccn1 (stereo not drawn) [Compound 544] | 1000 to 10000 | 100 to 1000 | ++ (“++” represents a ratio of between 10 and 100) | – |
| COC[C@H](C)Nc1ncc2c(-c3ccc(CN4CCN(C)CC4)nc3)cc([C@H]3CC[C@H](O)CC3)n2n1 [Compound 565] | 100 to 1000 | ≤ 100 | +++ (“+++” represents a ratio of >100) | – |
| COC[C@H](C)Nc1ncc2c(-c3cnn(C(C)(C)C(=O)N4CCOCC4)c3)cc([C@H]3CC[C@@H](O)CC3)n2n1 [Compound 547] | 100 to 1000 | ≤ 100 | +++ (“+++” represents a ratio of >100) | – |
| COC[C@H](C)Nc1ncc2c(-c3ccnc(N4CCN(CC5COC5)CC4)c3)cc([C@H]3CC[C@H](O)CC3)n2n1 [Compound 512] | 100 to 1000 | ≤ 100 | +++ (“+++” represents a ratio of >100) | – |
| CC[C@H](C)Nc1ncc2c(C3CCNCC3)cc([C@H]3CC[C@H](O)CC3)n2n1 [Compound 135, (trans)-4-(2-((S)-sec-butylamino)-5-(piperidin-4-yl)pyrrolo[2,1-f][1,2,4]triazin-7-yl)cyclohexanol] | 100 to 1000 | ≤ 100 | – | +++ (“+++” represents a ratio of >100) |

From patent publication US11040981B2, “Pyrrolotriazine compounds and methods of inhibiting TAM kinases” (Syros Pharmaceuticals, Inc., priority 2017, dated 2021)
